One data set deals with T1, Catenin beta-1 (Homo sapiens, UniProt P35222).
T1 sequence (P35222 whole entry): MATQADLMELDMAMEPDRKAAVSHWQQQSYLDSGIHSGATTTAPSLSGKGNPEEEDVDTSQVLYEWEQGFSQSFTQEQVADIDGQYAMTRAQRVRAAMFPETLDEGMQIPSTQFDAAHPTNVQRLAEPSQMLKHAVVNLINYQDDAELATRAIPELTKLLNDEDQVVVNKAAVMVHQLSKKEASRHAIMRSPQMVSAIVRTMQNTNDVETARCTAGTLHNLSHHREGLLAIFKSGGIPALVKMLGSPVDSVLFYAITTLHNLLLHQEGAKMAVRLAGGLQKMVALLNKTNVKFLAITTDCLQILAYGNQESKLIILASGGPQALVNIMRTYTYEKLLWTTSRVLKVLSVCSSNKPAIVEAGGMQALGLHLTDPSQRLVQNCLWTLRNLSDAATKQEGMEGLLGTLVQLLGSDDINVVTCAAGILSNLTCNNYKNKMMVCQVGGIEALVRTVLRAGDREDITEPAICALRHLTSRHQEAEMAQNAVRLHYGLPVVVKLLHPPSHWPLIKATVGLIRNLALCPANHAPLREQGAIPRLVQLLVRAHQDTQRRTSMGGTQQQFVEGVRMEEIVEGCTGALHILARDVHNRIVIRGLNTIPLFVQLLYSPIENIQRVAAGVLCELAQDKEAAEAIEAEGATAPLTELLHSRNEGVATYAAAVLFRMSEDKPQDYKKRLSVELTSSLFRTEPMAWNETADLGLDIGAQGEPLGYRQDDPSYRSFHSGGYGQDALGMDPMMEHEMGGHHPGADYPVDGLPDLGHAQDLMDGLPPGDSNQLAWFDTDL

A further data set deals with A549. In words: Cytotoxicity against human A549 cells assessed as reduction in cell viability measured after 72 hrs by MTS assay. Type of data set: functional, cell-based. Particulars: A549, 72 h. (Tetrazolium assays rely on reduction of a dye to a coloured formazan, in cell work by metabolically active cells.)
A further data set concerns BT-20. Briefly: Cytotoxicity against human BT20 cells assessed as reduction in cell viability measured after 72 hrs by MTS assay. Type of data set: functional, cell-based. As to conditions: BT-20, 72 h.
The next data set deals with HCT-116. Briefly: Cytotoxicity against human HCT116 cells assessed as reduction in cell viability measured after 72 hrs by MTS assay. The class given is functional, cell-based. As to conditions: HCT-116, 72 h.
In the next data set the test system is MDA-MB-231. Briefly: Cytotoxicity against human MDA-MB-231 cells assessed as reduction in cell viability measured after 72 hrs by MTS assay. Particulars: MDA-MB-231, 72 h. Type of data set: functional, cell-based.
A further data set deals with SW480. Briefly: Cytotoxicity against human SW480 cells assessed as reduction in cell viability measured after 72 hrs by MTS assay. Particulars: SW480, 72 h. Type of data set: functional, cell-based.
A further data set relates to MDA-MB-468. Briefly: Cytotoxicity against human MDA-MB-468 cells assessed as reduction in cell viability measured after 72 hrs by MTS assay. As to conditions: MDA-MB-468, 72 h. The class given is functional, cell-based.
Data set [1] can be described thus: Prodrug conversion in human SW480 cells assessed as (S)-4-((S)-2-((S)-2-(5-Chloro-1H-indole-2-carboxamido)-3-(naphthalen-2-yl)propanamido)-3-(2H-tetrazol-5-yl)propanamido)-5-oxo-5-((4-(trifluoromethoxy)phenyl)amino)pentanoic Acid formation at 25 uM measured after 24 hrs by HPLC-MS analysis. Type of data set: ADME, cell-based. Particulars: sw480, 24 h.
The nature of data set [2]: Drug uptake in human SW480 cells assessed as cell-bound level per million cells at 25 uM measured after 3 hrs by HPLC-MS analysis. Type of data set: ADME, cell-based. As to conditions: sw480, 3 h.

From ChEMBL document CHEMBL4339194 (J Med Chem, 2019) come the findings set out here.

A word on the IC50: it is the concentration at which inhibition is half-maximal. As a reminder, the Ki is a dissociation constant, usually derived from enzyme kinetics or from competition with a known ligand. The low end stands for tighter binding, the high end for weaker binding.

Bounds are passed on as bounds.

For the compound `COC(=O)[C@H](CCC(=O)O)NC(=O)[C@H](CC(=O)O)NC(=O)[C@H](Cc1ccc2ccccc2c1)NC(=O)Cc1nc2ccc(Cl)cc2s1`, at Catenin beta-1, inhibition was half-maximal at 88 µM (IC50) and the Ki amounted to 22 µM.
The corresponding values for `COC(=O)[C@H](CCC(=O)O)NC(=O)[C@H](CC(=O)O)NC(=O)[C@H](Cc1ccc2ccccc2c1)NC(=O)c1cc2ccc(Cl)cc2[nH]1` are 60 µM and 15 µM.
On to `NC(=O)CC[C@H](NC(=O)[C@H](Cc1nn[nH]n1)NC(=O)[C@H](Cc1ccc2ccccc2c1)NC(=O)c1cc2cc(Cl)ccc2[nH]1)C(=O)Nc1ccc(OC(F)(F)F)cc1`, for which the IC50 is 47.5 µM with A549; 29.3 µM in the data set on BT-20; 57.8 µM in the data set with HCT-116; 29.3 µM in the data set with MDA-MB-231; 24.6 µM with SW480; 26.9 µM in the data set with MDA-MB-468.
As to `COC(=O)[C@H](CCC(=O)O)NC(=O)[C@H](CC(=O)O)NC(=O)[C@H](Cc1ccc2ccccc2c1)NC(=O)Cc1nc2cc(Cl)ccc2o1`, at Catenin beta-1, the concentration for half-maximal inhibition (IC50) was greater than 400 µM and the Ki was greater than 100 µM.
The corresponding values for `COC(=O)[C@H](CCC(=O)O)NC(=O)[C@H](CC(=O)O)NC(=O)[C@H](Cc1ccc2ccccc2c1)NC(=O)Cc1nc2cc(Cl)ccc2[nH]1` are greater than 400 µM and greater than 100 µM.
The corresponding values for `COC(=O)[C@H](CCC(=O)O)NC(=O)[C@H](CC(=O)O)NC(=O)[C@H](Cc1ccc2ccccc2c1)NC(=O)Cc1nc2ccc(Cl)cc2o1` are greater than 400 µM and greater than 100 µM.
For `COC(=O)[C@H](CCC(=O)O)NC(=O)[C@H](CC(=O)O)NC(=O)[C@H](Cc1ccc2ccccc2c1)NC(=O)Cc1nc2cc(Cl)ccc2s1`, in that order: greater than 400 µM and greater than 100 µM.
Consider `COC(=O)[C@H](CCC(=O)O)NC(=O)[C@H](CC(=O)O)NC(=O)[C@H](Cc1ccc2ccccc2c1)NC(=O)c1cc2cc(C)ccc2[nH]1`, for which, at Catenin beta-1, the IC50 is greater than 400 µM and the Ki was greater than 100 µM.
On Catenin beta-1, `COC(=O)[C@H](CCC(=O)O)NC(=O)[C@H](CC(=O)O)NC(=O)[C@H](Cc1ccc2ccccc2c1)NC(=O)c1cc2cc(OC)ccc2[nH]1` displayed an IC50 greater than 400 µM and a Ki greater than 100 µM.
Take `CCOC(=O)CC[C@H](NC(=O)[C@H](CC(=O)OCC)NC(=O)[C@H](Cc1ccc2ccccc2c1)NC(=O)c1cc2cc(OC)ccc2[nH]1)C(=O)OC`: the IC50 in the data set on A549 is greater than 200 µM; with BT-20, greater than 200 µM; against Catenin beta-1, greater than 400 µM; with HCT-116, greater than 200 µM; in the data set with MDA-MB-231, greater than 200 µM; in the data set on SW480, greater than 200 µM. Besides, the IC50 with MDA-MB-468 is greater than 200 µM. This compound gave a Ki at Catenin beta-1 greater than 100 µM.
Regarding `CCOC(=O)CC[C@H](NC(=O)[C@H](Cc1nn[nH]n1)NC(=O)[C@H](Cc1ccc2ccccc2c1)NC(=O)c1cc2cc(Cl)ccc2[nH]1)C(=O)Nc1ccc(OC(F)(F)F)cc1`, the Drug metabolism entry in [1] was “Metabolite_Notdetected”. Moreover, the IC50 was found to be 67.9 µM in the data set with A549; 60.6 µM with HCT-116; 16.6 µM with MDA-MB-231; 17.7 µM in the data set on SW480; 10.6 µM in the data set with MDA-MB-468. Also, the Drug uptake in data set [2] was found to be 1.4 nmol/million cells.
On to `COC(=O)[C@H](CCC(=O)O)NC(=O)[C@H](CC(=O)O)NC(=O)[C@H](Cc1ccc2ccccc2c1)NC(=O)Cc1c[nH]c2cc(Cl)ccc12`, for which, at Catenin beta-1, the IC50 was greater than 400 µM and the Ki was greater than 100 µM.
For `COC(=O)[C@H](CCC(=O)O)NC(=O)[C@H](CC(=O)O)NC(=O)[C@H](Cc1ccc2ccccc2c1)NC(=O)Cc1c[nH]c2ccc(Cl)cc12`, in that order: greater than 400 µM and greater than 100 µM.
